Reference: BigSolDB 2.1

Clc1ccc(SSc2ccc(Cl)cc2)cc1
Conditions	solubility (mole fraction)
in acetone, 302.95 K	0.102
in acetone, 308.05 K	0.145
in acetone, 313.25 K	0.208
in chloroform, 303.15 K	0.122
in chloroform, 307.95 K	0.174
in chloroform, 312.55 K	0.243
in ethanol, 304.35 K	0.000264
in ethanol, 307.45 K	0.000783
in ethanol, 312.35 K	0.00305
in ethanol, 317.35 K	0.00786
in ethyl acetate, 303.95 K	0.0201
in ethyl acetate, 307.9 K	0.038
in ethyl acetate, 312.35 K	0.0667
in ethyl acetate, 319.05 K	0.117
in methanol, 303.15 K	0.00014
in methanol, 307.65 K	0.00061
in methanol, 314.15 K	0.00259
in methanol, 318.95 K	0.00552
in toluene, 303.2 K	0.0219
in toluene, 307.85 K	0.0446
in toluene, 314.05 K	0.0864
in toluene, 317.55 K	0.114
